Patent publication US8815874B2, “Pyrazolopyrimidine derivative” (Kyowa Hakko Kirin Co., Ltd., priority 2010, dated 2014)

Legend:
[1] = system: Dinitrofluorobenzene-Induced Ear Edema Reaction in Mouse; assay: Suppressive action on dinitrofluorobenzene-induced ear edema reaction in mouse (Test Example 2, 50% acetone/50% ethanol solvent); assay type: in vivo; settings: BALE/c mice (female); test compound 1% (w/v %) in 50% acetone/50% ethanol applied to front and back of auricle 1 hr before and 3 hr after induction; auricle thickness 24 hr after induction
Description: (§1) 5-Week old BALE/c mice (female, supplied by CHARLES RIVER LABORATORIES JAPAN, INC) were purchased and, after quarantine and habituation, those showing satisfactory body weight increase and free of abnormal appearance were used to start the test from 7 weeks of age. The animals were housed and bred in plastic cages (6 mice per cage) in a breeding chamber set at room temperature 19-25° C., humidity 30-70%, 12 hr illumination per day (7 a.m.-7 p.m.), with free access to a commercially available solid feed and water.
(§2) One day before the test, the abdomen was shaved, and a solution of dinitrofluorobenzene (manufactured by Nacalai Tesque) in acetone (manufactured by Wako Pure Chemical Industries, Ltd.) {concentration 0.5% [weight (w)/volume (v) %]} was applied to the shaved part of BALE/c mice by 100 μL for sensitization. On day 5 after sensitization, a dinitrofluorobenzene-acetone solution [concentration 0.2% (w/v %)] was applied to the front and the back of the auricle by 10 μL each (total 20 μL) to induce reaction. A test compound dissolved in 50% acetone/50% ethanol (w/v %) to the concentration of 1% (w/v %) was applied to the front and the back of the auricle 1 hr before and 3 hr after the induction of reaction each by 10 μL (total 20 μL). After the application, the applied part was air-dried by a dryer.
(§3) A group administered with the test compound by coating was taken as a test compound administration group, and a group administered with 50% acetone/50% ethanol (w/v %) (solvent) by coating instead of the test compound was taken as a solvent administration group. In addition, a group free of sensitization and induction of reaction and administered with 50% acetone/50% ethanol (w/v %) by coating instead of the test compound was taken as a normal group. The thickness of the auricle was measured immediately before induction of reaction and 24 hr after the induction with a dial thickness gauge (manufactured by OZAKI MFG. CO., LTD., G-1A), and the difference between them was taken as ear edema. The ear edema suppressive rate (%) was calculated according to the following formula.

[2] = system: Dinitrofluorobenzene-Induced Ear Edema Reaction in Mouse; assay: Suppressive action on dinitrofluorobenzene-induced ear edema reaction in mouse (Test Example 1, acetone solvent); assay type: in vivo; settings: BALE/c mice (female); test compound 1% (w/v %) in acetone applied to front and back of auricle 1 hr before and 3 hr after induction; auricle thickness 24 hr after induction
Description: as §1, with “5-Week to 6-week” for “5-Week”
as §2, with “acetone” for “50% acetone/50% ethanol (w/v %)”
as §3, with “acetone” for “50% acetone/50% ethanol (w/v %)”

How did the “ear edema suppressive rate (%)” value [1] turn out when `CONS(=O)(=O)c1cnn2c(Nc3cc(Cl)ccc3Cl)c(C(=O)N3CCC(c4ccc(F)cc4)CC3)cnc12` [compound a-27, 7-(2,5-dichlorophenylamino)-6-[4-(4-fluorophenyl)piperidine-1-carbonyl]-N-methoxypyrazolo[1,5-a]pyrimidine-3-sulfonamide] was run?
Its value is 47%.

How did the “ear edema suppressive rate (%)” value [1] turn out when `CCC(=O)NS(=O)(=O)c1cnn2c(Nc3cc(C)c(F)cc3Cl)c(C(=O)N3CCC(c4ccc(F)cc4)CC3)cnc12` [compound a-40, N-{7-(2-chloro-4-fluoro-5-methylphenylamino)-6-[4-(4-fluorophenyl)piperidine-1-carbonyl]pyrazolo[1,5-a]pyrimidin-3-ylsulfonyl}propionamide] was run?
Its value is 32%.

For `CCNC(=O)NS(=O)(=O)c1cnn2c(Nc3cc(C)ccc3Cl)c(C(=O)N3CCC(c4ccc(F)cc4)CC3)cnc12` [compound a-14, 7-(2-chloro-5-methylphenylamino)-N-(ethylcarbamoyl)-6-[4-(4-fluorophenyl)piperidine-1-carbonyl]pyrazolo[1,5-a]pyrimidine-3-sulfonamide], which “ear edema suppressive rate (%)” value [2] is on record?
The value was 25%.

For `O=C(NS(=O)(=O)c1cnn2c(Nc3ccccc3Cl)c(C(=O)N3CCC(c4ccccc4)CC3)cnc12)C1CC1` [compound a-6, N-[7-(2-chlorophenylamino)-6-(4-phenylpiperidine-1-carbonyl)pyrazolo[1,5-a]pyrimidin-3-ylsulfonyl]cyclopropanecarboxamide], which “ear edema suppressive rate (%)” value [2] is on record?
The value was 30%.

With `CCNC(=O)NS(=O)(=O)c1cnn2c(Nc3ccc(F)cc3C)c(C(=O)N3CCC4(CC3)OCc3ccccc34)cnc12` [compound a-43, 7-(4-fluoro-2-methylphenylamino)-N-(ethylcarbamoyl)-6-[3H-spiro(isobenzofuran-1,4′-piperidine)-1-carbonyl]pyrazolo[1,5-a]pyrimidine-3-sulfonamide] as the compound, how does the “ear edema suppressive rate (%)” value [2] read?
The value was 40%.

Which “ear edema suppressive rate (%)” value [1] does the source give for `CCC(=O)NS(=O)(=O)c1cnn2c(Nc3cc(C)ccc3Cl)c(C(=O)N3CC4(C3)CN(c3ccc(F)cc3)C4)cnc12` [compound a-60, N-{7-(2-chloro-5-methylphenylamino)-6-[6-(4-fluorophenyl)-2,6-diazaspiro[3,3]heptane-2-carbonyl]pyrazolo[1,5-a]pyrimidin-3-ylsulfonyl}propionamide] here?
The value was 5%.

Which “ear edema suppressive rate (%)” value [1] does the source give for `CCC(=O)NS(=O)(=O)c1cnn2c(Nc3cc(Cl)ccc3Cl)c(C(=O)N3CCC(c4ccc(F)cc4)CC3)cnc12` [compound a-22, N-{7-(2,5-dichlorophenylamino)-6-[4-(4-fluorophenyl)piperidine-1-carbonyl]pyrazolo[1,5-a]pyrimidin-3-ylsulfonyl}propionamide] here?
The value was 16%.
